According to patent US20120309821A1, “Use of epigallocatechin-3-gallate for immune regulation” (NATIONAL DEFENSE MEDICAL CENTER, priority 2011, published 2012):

Key:
[1] = system: CD3+CD69+ cells (activated T cells); assay: T cell activation in splenocytes by flow cytometry; format: in vivo, mouse; conditions: 120 mg/kg by gavage daily; week 34; increase seen in disease control
Description: (§1) Female NZB/W F1 mice were purchased from the Animal Center of the National Taiwan University (Taipei, Taiwan, ROC) and, at 12 weeks of age, were divided into two groups, one of which was given normal saline and served as the disease control, while the other was given 120 mg/kg body weight of EGCG (Ryss Lab, Inc., CA, USA) (this dose is a slight modification of those used in previous in vivo studies) by gavage daily till sacrificed at 34-weeks-old. 8-Week-old NZB/W F1 female mice (prior to onset of autoantibody production) were used as normal controls. Urine samples were collected in metabolic cages every 2 weeks and urine protein levels were measured, and serum samples were used to measure serum levels of blood urea nitrogen (BUN) and creatinine (Cr) as described previously (Ka, S. M. et al. Decoy receptor 3 ameliorates an autoimmune crescentic glomerulonephritis model in mice. J Am Soc Nephrol 18:2473-2485; 2007). All animal experiments were performed upon the ethical approval of the Institutional Animal Care and Use Committee of the National Defense Medical Center, Taiwan and according to the ethical rules in the NIH Guide for the Care and Use of Laboratory Animals. […]

[2] = system: CD19+CD69+ cells (activated B cells); assay: B cell activation in splenocytes by flow cytometry; format: in vivo, mouse; conditions: 120 mg/kg by gavage daily; week 34; EGCG-treated vs disease mice
Description: as §1

Epigallocatechin-3-gallate [EGCG]
percentage of CD3+CD69+ cells (activated T cells) in CD3+ splenocytes [1]: not inhibited | percentage of CD19+CD69+ cells (activated B cells) in CD19+ splenocytes [2]: no significant difference
